{
  "source": "patent US5698529A",
  "about": "“Chemotherapeutic compositions” (Supratek Pharma, Inc., priority 1996, dated 1997)",
  "key": {"[1]": {"test_system": "human T-lymphoma (Jurkat) cells", "assay": "Cytotoxicity in human T-lymphoma (Jurkat) cells, Example 4", "format": "cell-based", "experimental": "(§1) B. Human ovarian carcinoma cells (CRL157) are precultured in 1% solution of the same block copolymer but without daunorubicin in RPMI 1640 medium supplemented with 10% calf fetal serum. The preparation of part A is added and the mixture is incubated for 60 minutes at 37° C. and the cells then washed three times with RPMI 1640 and cultured in RPMI 1640 supplemented with 10% calf fetal serum for 3 days {Prep. A}. Cytotoxicity is measured, both for this preparation and a parallel preparation of free daunorubicin {Prep. B}, using the method of Alley et al., Cancer Res., 48, 589-601 (1988). The results are as follows:\n(§2) A. A 1:1.5 mixture of block copolymers of poly(oxyethylene)-poly(oxypropylene) (pluronics P-85 and L-64) having individual ratios (n) of (oxypropylene) to (oxyethylene) blocks of 1.00 and 1.50, respectively, and a combined value (N) of 1.30, is diluted with RPMI 1640 medium to a final concentration of 2.0% at 4° C. The mixture is incubated for 30 minutes at 37° C. and then sterilely filtered through a 0.22 μm filter. An equal volume of a solution of 200 μg daunorubicin in RPMI 1640 medium is added and this mixture is incubated for 30 minutes at 37° C.\nDaunorubicin in the composition of Example 3 is evaluated for cytotoxicity in (i) human T-lymphoma (Jurkat) cells as described in Example 1 and (ii) normal human mononuclear cells."}, "[2]": {"test_system": "normal human mononuclear cells", "assay": "IC50 at intervals of drug contact, normal mononuclear cells, Example 5", "format": "cell-based", "experimental": "Measurements are made at the indicated intervals of the drug contact with the cells from 15 minutes to 12 hours."}, "H-69 cells": {"test_system": "H-69 cells", "assay": "Cytotoxic activity of plasma of inoculated mice on H-69 cells", "format": "cell-based, human", "conditions": "MTD i.v., plasma one hour after administration", "experimental": "Anti-neoplastic activity is determined by evaluation of the cytotoxic activity of plasma of mammals inoculated with the test composition (see de Valeriola et el., Cancer Chemother. Pharmacol. 29, 133-140, 1991).\nGroups (6 animals/group) of C57B1/6 7-week-old female mice are inoculated i.v. (via the tail vein) with free or micellar (N=1.3) daunorubicin obtained as described in Example 3 {Prep. B and Prep. A, respectively}. Drug concentrations (MTD) are adjusted so that a maximum volume of 0.1 mL is injected in each mouse. The experiment is repeated twice.\nTo obtain plasma samples, blood (10 μl) is collected from the tail artery one hour after drug administration, diluted 1:10 with sterile RPMI 1640 medium, and centrifuged at 400 g for 15 minutes. […] The cells are incubated for two hours at 37° C. and 5% CO2, and then washed three times with RPMI 1640. The pretreated cells are incubated in RPMI 1640 supplemented with 10% fetal calf serum at 37° C. and 5% CO2 for three days, after which cytotoxicity is determined as described in Example 1."}, "[3]": {"test_system": "human ovarian cancer cells (CRL157)", "assay": "Cytotoxicity to human ovarian cancer cells (CRL157), Example 3", "format": "cell-based", "experimental": "as §1, §2\nB. Cytotoxicity to human ovarian cancer cells (CRL157) is measured, both for this preparation {Prep. A} and a parallel preparation of free daunorubicin {Prep. B} as described in Example 1B."}, "[4]": {"test_system": "human breast cancer (MCF-7)", "assay": "Cytotoxicity against daunorubicin-sensitive human breast cancer (MCF-7)", "format": "cell-based", "conditions": "MCF7", "from_the_text": "(§3) The daunorubicin composition of Example 3 {Prep. […] B}."}, "CRL157 cells": {"test_system": "CRL157 cells", "assay": "Cytotoxicity to CRL157 cells after incubation of preparations in the dark at 37° C.", "format": "cell-based", "conditions": "Homo sapiens", "experimental": "as §1\nMicellar daunorubicin obtained as described in Example 3 {Prep. A} and free daunorubicin {Prep. B} are incubated in the dark at 37° C. and cytotoxicity to CRL157 cells in then determined in the manner discussed in Part B of Example 1."}, "Dox-MCF-7": {"test_system": "Dox-MCF-7", "assay": "Cytotoxicity against daunorubicin-resistant, verapamil-sensitive Dox-MCF-7 expressing P-170", "format": "cell-based, human", "from_the_text": "as §3"}, "leukocytes": {"test_system": "leukocytes", "assay": "Leukocyte count (WBS) in mice", "experimental": "Therefore, the leukocyte count during in vivo administration of MTD daunorubicin allows the assessment of the ratio between specific (DNA-intercollation) activity of the drug and non-specific toxicity.\nGroups (6 animals/group) of C57B1/6 7-week-old female mice are inoculated i.p. with free of micellar (N=1.3) daunorubicin obtained as described in Example 3 {Prep. B and Prep. A, respectively}. Drug concentrations (MTD) are adjusted so that a maximum volume of 0.5 mL is injected in each mouse. Blood samples are collected and viable leukocytes are counted as described in Michisch et al., Proc. Natl. Acad. Sci. USA 88, 547-551 (1991). The number of WBC after administration of 0.1 mL PBS, 15-16 mln cells/mL, is used as the control. The experiment is repeated twice.\nThe effects of free and micellar daunorubicin obtained as described in Example 3 {Prep. B and Prep. A, respectively} on leukocyte count are determined three days after administration as described in Example 15."}},
  "data": [
    {"smiles": "COc1cccc2c1C(=O)c1c(O)c3c(c(O)c1C2=O)C[C@@](O)(C(C)=O)C[C@@H]3O[C@H]1C[C@H](N)[C@H](O)[C@H](C)O1", "note": "[Prep. B, daunorubicin]", "values": [
      {"measurement": "inhibition at 0.0032 µg/mL", "setting": "[1]", "value": 21, "unit": "%"},
      {"measurement": "inhibition at 0.016 µg/mL", "setting": "[1]", "value": 36, "unit": "%"},
      {"measurement": "inhibition at 0.08 µg/mL", "setting": "[1]", "value": 59, "unit": "%"},
      {"measurement": "inhibition at 0.4 µg/mL", "setting": "[1]", "value": 83, "unit": "%"},
      {"measurement": "inhibition at 2 µg/mL", "setting": "[1]", "value": 100, "unit": "%"},
      {"measurement": "inhibition at 10 µg/mL", "setting": "[1]", "value": 100, "unit": "%"},
      {"measurement": "inhibition at 50 µg/mL", "setting": "[1]", "value": 100, "unit": "%"},
      {"measurement": "IC50", "setting": "[2]; 0.25 h", "value": 4.9, "unit": "µg/mL"},
      {"measurement": "IC50", "setting": "[2]; 0.5 h", "value": 0.98, "unit": "µg/mL"},
      {"measurement": "IC50", "setting": "[2]; 0.75 h", "value": 0.405, "unit": "µg/mL"},
      {"measurement": "IC50", "setting": "[2]; 1 h", "value": 0.31, "unit": "µg/mL"},
      {"measurement": "IC50", "setting": "[2]; 2 h", "value": 0.29, "unit": "µg/mL"},
      {"measurement": "IC50", "setting": "[2]; 4 h", "value": 0.275, "unit": "µg/mL"},
      {"measurement": "IC50", "setting": "[2]; 8 h", "value": 0.28, "unit": "µg/mL"},
      {"measurement": "IC50", "setting": "[2]; 12 h", "value": 0.24, "unit": "µg/mL"},
      {"measurement": "Inhibition, %", "setting": "H-69 cells; plasma dilution 1:20", "value": 42, "unit": "%"},
      {"measurement": "Inhibition, %", "setting": "H-69 cells; plasma dilution 1:200", "value": 5, "unit": "%"},
      {"measurement": "Inhibition, %", "setting": "H-69 cells; plasma dilution 1:2000", "value": 0, "unit": "%"},
      {"measurement": "Inhibition, %", "setting": "H-69 cells; plasma dilution 1:20000", "value": 0, "unit": "%"},
      {"measurement": "inhibition at 0.0032 µg/mL", "setting": "[3]", "value": 2, "unit": "%"},
      {"measurement": "inhibition at 0.016 µg/mL", "setting": "[3]", "value": 10, "unit": "%"},
      {"measurement": "inhibition at 0.08 µg/mL", "setting": "[3]", "value": 29, "unit": "%"},
      {"measurement": "inhibition at 0.4 µg/mL", "setting": "[3]", "value": 50, "unit": "%"},
      {"measurement": "inhibition at 2 µg/mL", "setting": "[3]", "value": 81, "unit": "%"},
      {"measurement": "inhibition at 10 µg/mL", "setting": "[3]", "value": 100, "unit": "%"},
      {"measurement": "inhibition at 50 µg/mL", "setting": "[3]", "value": 100, "unit": "%"},
      {"measurement": "inhibition at 0.016 µg/mL", "setting": "[4]", "value": 15, "unit": "%"},
      {"measurement": "inhibition at 0.08 µg/mL", "setting": "[4]", "value": 43, "unit": "%"},
      {"measurement": "inhibition at 0.4 µg/mL", "setting": "[4]", "value": 69, "unit": "%"},
      {"measurement": "inhibition at 2 µg/mL", "setting": "[4]", "value": 91, "unit": "%"},
      {"measurement": "inhibition at 10 µg/mL", "setting": "[4]", "value": 100, "unit": "%"},
      {"measurement": "inhibition at 50 µg/mL", "setting": "[4]", "value": 100, "unit": "%"},
      {"measurement": "IC50", "setting": "CRL157 cells; 2 h", "value": 0.4, "unit": "µg/mL"},
      {"measurement": "IC50", "setting": "CRL157 cells; 4 h", "value": 0.475, "unit": "µg/mL"},
      {"measurement": "IC50", "setting": "CRL157 cells; 12 h", "value": 1.12, "unit": "µg/mL"},
      {"measurement": "IC50", "setting": "CRL157 cells; 24 h", "value": 6.3, "unit": "µg/mL"},
      {"measurement": "IC50", "setting": "CRL157 cells; 48 h", "value": 10.2, "unit": "µg/mL"},
      {"measurement": "IC50", "setting": "CRL157 cells; 96 h", "value": 48.9, "unit": "µg/mL"},
      {"measurement": "inhibition at 0.016 µg/mL", "setting": "Dox-MCF-7; Homo sapiens", "value": 2, "unit": "%"},
      {"measurement": "inhibition at 0.08 µg/mL", "setting": "Dox-MCF-7; Homo sapiens", "value": 7, "unit": "%"},
      {"measurement": "inhibition at 0.4 µg/mL", "setting": "Dox-MCF-7; Homo sapiens", "value": 39, "unit": "%"},
      {"measurement": "inhibition at 2 µg/mL", "setting": "Dox-MCF-7; Homo sapiens", "value": 62, "unit": "%"},
      {"measurement": "inhibition at 10 µg/mL", "setting": "Dox-MCF-7; Homo sapiens", "value": 86, "unit": "%"},
      {"measurement": "inhibition at 50 µg/mL", "setting": "Dox-MCF-7; Homo sapiens", "value": 100, "unit": "%"},
      {"measurement": "IC50 (in words)", "setting": "Dox-MCF-7; resistant line Dox-MCF-7, statement for both resistant lines", "value": "higher IC50 's (is less toxic)"},
      {"measurement": "WBS, % of control", "setting": "leukocytes; day 0, MTD i.p.", "value": "100 % of control"},
      {"measurement": "WBS, % of control", "setting": "leukocytes; day 3, MTD i.p.", "value": "40 % of control"},
      {"measurement": "WBS, % of control", "setting": "leukocytes; day 7, MTD i.p.", "value": "60 % of control"},
      {"measurement": "WBS, % of control", "setting": "leukocytes; day 10, MTD i.p.", "value": "93.8 % of control"},
      {"measurement": "WBS, % of control", "setting": "leukocytes; day 14, MTD i.p.", "value": "100 % of control"},
      {"measurement": "WBS, % of control", "setting": "leukocytes; dose 25% of MTD, three days after administration", "value": "78 % of control"},
      {"measurement": "WBS, % of control", "setting": "leukocytes; dose 50% of MTD, three days after administration", "value": "61 % of control"},
      {"measurement": "WBS, % of control", "setting": "leukocytes; dose 75% of MTD, three days after administration", "value": "36 % of control"},
      {"measurement": "WBS, % of control", "setting": "leukocytes; dose 100% of MTD, three days after administration", "value": "39 % of control"}
    ]}
  ]
}
